Source: ChEMBL document CHEMBL1201862, “PubChem BioAssay data set” (2004)
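Method: 48-hour compound exposure of cells in 96-well plates, five concentrations, linear interpolation of endpoints. The concentration for 50% growth inhibition is given as GI50.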 Activity calls are given as the source filed them. Cut-off read from the data, not from the text of the source: active = GI50 up to about 1.1 µM and inactive = higher.

Tests used:
Assay in all cases: NCI-60 cell line screen, 48 h
[1] = test system: OVCAR-4
[2] = test system: SW-620
[3] = test system: MDA-N
[4] = test system: RXF 393
[5] = test system: A549
[6] = test system: SF-539
[7] = test system: HCT-116
[8] = test system: HCC 2998
[9] = test system: SNB-19
[10] = test system: UACC-257
[11] = test system: KM12
[12] = test system: UACC-62
[13] = test system: OVCAR-8
[14] = test system: CAKI-1
[15] = test system: SK-MEL-5
[16] = test system: SF-268
[17] = test system: HOP-92
[18] = test system: OVCAR-5
[19] = test system: TK-10
[20] = test system: Malme-3M
[21] = test system: DU-145
[22] = test system: MCF7
[23] = test system: PC-3
[24] = test system: 786-0
[25] = test system: A498
[26] = test system: EKVX
[27] = test system: SNB-75
[28] = test system: SF-295
[29] = test system: Hs-578T
[30] = test system: COLO 205
[31] = test system: U-251
[32] = test system: NCI-H522
[33] = test system: SN12C
[34] = test system: NCI-H23
[35] = test system: UO-31
[36] = test system: NCI-H460
[37] = test system: SR
[38] = test system: HCT-15
[39] = test system: HL-60
[40] = test system: M14
[41] = test system: SK-MEL-28
[42] = test system: OVCAR-3
[43] = test system: SK-OV-3
[44] = test system: CCRF-CEM
[45] = test system: RPMI-8226
[46] = test system: HT-29
[47] = test system: IGROV-1
[48] = test system: K562
[49] = test system: HOP-62
[50] = test system: BT-549
[51] = test system: MDA-MB-435
[52] = test system: MOLT-4
[53] = test system: MDA-MB-231
[54] = test system: ACHN
[55] = test system: NCI/ADR-RES
[56] = test system: LOX IMVI
[57] = test system: SK-MEL-2
[58] = test system: NCI-H226
[59] = test system: T47D

Measured: GI50

O=C1O/C(=C(/Cl)c2cccc3ccccc23)c2ccccc21
> 100 µM: [38]
inactive: [1] > 100 µM | [2] > 100 µM | [3] > 100 µM | [4] > 100 µM | [5] > 100 µM | [6] > 100 µM | [7] > 100 µM | [8] > 100 µM | [9] > 100 µM | [10] > 100 µM | [11] 7.62 µM | [12] > 100 µM | [13] > 100 µM | [14] > 100 µM | [15] > 100 µM | [16] 81.1 µM | [17] > 100 µM | [18] > 100 µM | [19] > 100 µM | [20] > 100 µM | [21] > 100 µM | [23] > 100 µM | [24] 82.2 µM | [25] > 100 µM | [26] > 100 µM | [27] 22.2 µM | [28] 47 µM | [29] 32.4 µM | [30] > 100 µM | [31] 96.8 µM | [32] 52.1 µM | [33] > 100 µM | [34] > 100 µM | [35] > 100 µM | [36] > 100 µM | [37] > 100 µM | [39] > 100 µM | [40] > 100 µM | [41] > 100 µM | [42] > 100 µM | [43] > 100 µM | [44] > 10 µM | [45] > 100 µM | [46] > 100 µM | [47] > 100 µM | [48] > 100 µM | [49] 46.3 µM | [50] > 100 µM | [51] > 100 µM | [52] > 100 µM
active: [22] 0.735 µM

CCc1nnc(CC)n1NCCCC(=O)O
> 100 µM: [38]
inactive: [1] > 100 µM | [2] > 100 µM | [3] > 100 µM | [4] > 100 µM | [53] > 100 µM | [5] > 100 µM | [6] > 100 µM | [7] > 100 µM | [8] > 100 µM | [9] > 100 µM | [10] > 100 µM | [11] > 100 µM | [54] > 100 µM | [12] > 100 µM | [13] > 100 µM | [15] > 100 µM | [16] > 100 µM | [17] > 100 µM | [18] > 100 µM | [19] > 100 µM | [21] > 100 µM | [22] > 100 µM | [23] > 100 µM | [24] > 100 µM | [26] > 100 µM | [27] > 100 µM | [28] > 100 µM | [55] > 100 µM | [30] > 100 µM | [31] > 100 µM | [32] > 100 µM | [33] > 100 µM | [34] > 100 µM | [35] > 100 µM | [37] > 100 µM | [40] > 100 µM | [41] > 100 µM | [42] > 100 µM | [43] > 100 µM | [44] > 100 µM | [45] > 100 µM | [56] > 100 µM | [46] > 100 µM | [57] > 100 µM | [47] > 100 µM | [48] > 100 µM | [49] > 100 µM | [50] > 100 µM | [51] > 100 µM | [52] > 100 µM

COC(=O)[C@]12CC[C@H]3CN(C(=O)OCc4ccccc4)[C@H]([C@H]31)[C@H](c1ccco1)N2
inactive: [2] > 100 µM | [3] 30.8 µM | [58] 69.7 µM | [4] > 100 µM | [53] 82 µM | [5] 37.2 µM | [6] > 100 µM | [7] 40.8 µM | [8] > 100 µM | [9] > 100 µM | [10] 29.9 µM | [11] 26.4 µM | [54] 43.5 µM | [12] 23.7 µM | [13] 33 µM | [14] 35.8 µM | [15] 17 µM | [16] 57 µM | [17] 29.4 µM | [18] > 100 µM | [19] > 100 µM | [20] 23.3 µM | [21] > 100 µM | [22] 42.3 µM | [23] 33.2 µM | [24] 77.8 µM | [26] 39.9 µM | [28] 32.1 µM | [29] 42.4 µM | [59] 42.1 µM | [55] 18.1 µM | [30] 20.1 µM | [31] 84.7 µM | [32] 14.1 µM | [33] 46.2 µM | [34] 17.3 µM | [35] > 100 µM | [36] 45.6 µM | [37] 44.9 µM | [39] 28.8 µM | [40] 38 µM | [41] 51.3 µM | [42] 51.6 µM | [43] > 100 µM | [44] 33.4 µM | [45] 27.4 µM | [56] 53.2 µM | [46] 81.3 µM | [57] 55.1 µM | [47] 60.4 µM | [48] 30.4 µM | [49] 90.2 µM | [51] 19.4 µM | [52] 19.8 µM
23.9 µM: [38]
active: [1] 0.61 µM | [25] 0.0226 µM
